Eleven compounds from article PMC11375786, “Induction of Paraptotic Cell Death in Cancer Cells by Triptycene–Peptide Hybrids and the Revised Mechanism of Paraptosis II” (Biochemistry, 2024) can be followed below.

Like-named read-outs stand apart in the source and are kept apart here. Numbered stars: 1 amine (or outer) side, 2 acyl side, 3 side chain; on linkers, the order of the positions; unused ones are H or OH. Bridge positions count the residues as written; N and C are the ends. Square brackets hold non-standard residues; d marks the D form. Peptide text beside a SMILES is read from it. I, II: the chains in the order shown. * marks the point of attachment. X1 = O=C(COc1cccc2c1C1c3c(OCC(=O)NCCCCCCCCN[*:2])cccc3C2c2cccc(OCC(=O)NCCCCCCCCN[*:3])c21)NCCCCCCCCN[*:1]; Cha = N[C@@H](CC1CCCCC1)C(=O)O; Cbz = O=C(OCc1ccccc1)*; CH2F = FC*

For assay [1], the system named is Jurkat cells. Kind of assay: MTT assay of Jurkat cells treated with 4 or celastrol in the presence of inhibitors. The assay is classed as cell-based. The conditions noted are these: DIDS 75 or 100 μM, RuRed 75 μM; for Inhibition of 4-induced cell death in Jurkat cells: 4 2.5 μM 1 h, Z-VAD-fmk 15 μM, necrostatin-1 30 μM, 3-MA 10 μM, CCCP 40 μM, 2-APB 50 or 100 μM; for Inhibition of celastrol-induced cell death in Jurkat cells: celastrol 5 μM 24 h, 2-APB 50 μM. As for the experimental part:
(a) Jurkat cells: Jurkat cells (2.0 × 10^5 cells/mL) in RPMI 1640 medium with 10% FBS were pretreated with the inhibitors (Z-VAD-fmk (final concentration = 15 μM), necrostatin-1 (final concentration = 30 μM), 3-MA (final concentration = 10 μM), and DIDS (75 or 100 μM)) for 3 h or pretreated with other inhibitors (CCCP (40 μM), FCCP (40 μM), 2-APB (50 or 100 μM) and RuRed (75 μM)) for 1 h under 5% CO2 at 37 °C. After incubation, 4 (final concentration = 2.5 μM) was added to the cell suspension, which was then incubated for 1 h at 37 °C. To test the effect of celastrol, the cells were pretreated with the aforementioned inhibitors and then incubated with celastrol (5 μM) for 24 h. MTT reagent (5 mg/mL) in PBS (10 μL) was added to the cells. After incubation at 37 °C for 4 h, a formazan lysis solution (10% sodium dodecyl sulfate (SDS) in 0.01 N HCl) (100 μL) was added, and the resultant solution was incubated overnight under the same conditions, followed by measurement of the absorbance at 570 nm using a microplate reader (ARVO, PerkinElmer).
Background: Formazan colour is commonly taken as a measure of viable cells.

Assay [2] concerns HeLa-S3 cells. Kind of assay: MTT assay of HeLa-S3 cells treated with 4 or celastrol in the presence of inhibitors. The assay is classed as cell-based, human. The conditions noted are these: 4 5 μM 1 h; Z-VAD-fmk 100 μM, necrostatin-1 100 μM, 3-MA 5 mM, CCCP 160 μM, DIDS 75 or 100 μM. As for the experimental part:
(b) HeLa-S3 cells: HeLa-S3 cells (2.0 × 10^5 cells/mL) in MEM medium with 10% FBS were pretreated with the inhibitors (3-MA (5 mM), and DIDS (75 or 100 μM)) for 3 h or pretreated with other inhibitors (Z-VAD-fmk (100 μM), necrostatin-1 (100 μM), CCCP (160 μM), and FCCP (80 μM)) for 1 h under 5% CO2 at 37 °C. After the incubation, 4 (final concentration = 5 μM) was added to the cell suspension, which was then incubated for 1 h at 37 °C. Subsequent procedures were the same as those used for the Jurkat cells.

Assay [3] concerns A549 cells. Kind of assay: MTT assay of A549 cells treated with 4 or celastrol in the presence of inhibitors. The assay is classed as cell-based, human. The conditions noted are these: 4 10 μM 1 h; Z-VAD-fmk 100 μM, necrostatin-1 100 μM, 3-MA 1 mM, CCCP 250 μM, DIDS 250 μM. As for the experimental part:
(c) A549 cells: A549 cells (2.0 × 10^5 cells/mL) in DMEM medium with 10% FBS were pretreated with the inhibitors (3-MA (1 mM), and DIDS (250 μM)) for 3 h or pretreated with other inhibitors (Z-VAD-fmk (100 μM), necrostatin-1 (100 μM), CCCP (250 μM), and FCCP (10 μM)) for 1 h under 5% CO2 at 37 °C. After incubation, 4 (final concentration = 10 μM) was added to the cell suspension, which was then incubated for 1 h at 37 °C. Subsequent procedures were the same as those used for the Jurkat cells.

The test system of assay [4] is A549 cells. Kind of assay: cells. How it is done: (§1) HeLa S3 cells (human cervical carcinoma) were cultured in Minimum essential medium (MEM) containing 10% FBS, penicillin, and streptomycin. A549 cells (human lung carcinoma) and IMR90 cells (human fetal lung fibroblast) were cultured in Dulbecco’s modified Eagle’s medium (DMEM) with 10% FBS, penicillin, and streptomycin. All cells were cultured at 37 °C under a humidified atmosphere containing 5% CO2.
(§2) Jurkat, HeLa-S3, A549 cells (2.0 × 10^5 cells/mL) and IMR90 cells (1.0 × 10^5 cells/mL) were incubated in the presence of 3–7 for 1 h, and etoposide, cisplatin and celastrol for 24 h (50 μL) in cell culture medium under CO2 at 37 °C in 96-well plates (BD Falcon). MTT reagent (5 mg/mL) in PBS (10 μL) was then added to the cells. After incubation at 37 °C for 4 h, a formazan lysis solution (10% sodium dodecyl sulfate (SDS) in 0.01 N HCl) (100 μL) was added and the resultant solution was incubated overnight under the same conditions, which was followed by measurement of the absorbance at 570 nm using a microplate reader (ARVO, PerkinElmer).

The subject of assay [5] is HeLa-S3 cells. Kind of assay: cells. How it is done: as §1, §2
The test system of assay [6] is IMR90 cells. Kind of assay: cells. How it is done:
as §1, §2

The test system of assay [7] is Jurkat cells. The experiment in a line: cells. How it is done:
as §1, §2

Assay [8] deals with labile Fe^2+ in mitochondria of Jurkat cells. Kind of assay: Mito-FerroGreen fluorescence microscopy in Jurkat cells. The following applies: 4 2.5 μM 1 h; celastrol 5 μM, etoposide 5 μM, cisplatin 100 μM 24 h. The class given is cell-based. As for the experimental part:
(§3) Jurkat cells (2.0 × 10^5 cells) were treated with 4 (2.5 μM), etoposide (5 μM), cisplatin (100 μM) and celastrol (5 μM) and stained with Mito-FerroGreen (a probe for labile Fe^2+ in mitochondria) (5 μM) and zinquin (a probe for intracellular Zn^2+) (25 μM). The cell images were observed via fluorescence microscopy.

In assay [9] the test system is intracellular Zn^2+ in Jurkat cells. Kind of assay: Zinquin fluorescence microscopy in Jurkat cells. The class given is cell-based. The conditions noted are these: 4 2.5 μM 1 h; celastrol 5 μM, etoposide 5 μM, cisplatin 100 μM 24 h. How it is done:
as §3

By EC50 is commonly meant the concentration needed to bring the measured effect to its halfway point.

In the case of `NCCOB(c1ccccc1)c1ccccc1` [2-APB], in [1], the “Inhibition of 4-induced cell death in Jurkat cells” value is given as “rather weak” and the “Inhibition of celastrol-induced cell death in Jurkat cells” value was “did not significantly stop cell death”.

As to `Cn1cnc(N)c2ncnc1-2` [3-MA, 3-methyladenine], the “Inhibition of 4-induced cell death in Jurkat cells” value in assay [1] is “negligibly inhibited”. Further, the “Inhibition of 4-induced cell death in HeLa-S3 cells” value (shortened to “Inhibition … in HeLa-S3 cells”) in assay [2] was “negligibly inhibited”. Also, in assay [3], the “Inhibition of 4-induced cell death in A549 cells” value (“Inhibition … in A549 cells” below) is “negligibly inhibited”.

Regarding `O=S(=O)(O)c1cc(N=C=S)ccc1C=Cc1ccc(N=C=S)cc1S(=O)(=O)O` [DIDS, 4,4′-diisothiocyano-2,2′-stilbenedisulfonic acid], in [1], the “Inhibition of 4-induced cell death in Jurkat cells” value is “considerably inhibits” and the “Inhibition of celastrol-induced cell death in Jurkat cells” value is recorded as “did not significantly stop cell death”. Besides, in assay [2], the “Inhibition … in HeLa-S3 cells” value was “considerably inhibits”. Also, in assay [3], the “Inhibition … in A549 cells” value is “considerably inhibits”.

Consider `NCCCC[C@H](NC(=O)[C@H](CCCCN)NC(=O)[C@@H](N)CCCCN)C(=O)N[C@@H](CC1CCCCC1)C(=O)NCC(=O)O` [KKKChaG, H2N-KKKChaG] (H-KKK[Cha]G-OH; C-terminus assumed), for which the concentration giving a half-maximal response (EC50) in assay [4] (1 h), in assay [5] (1 h), in assay [6] (1 h) and in [7] (1 h) was over 25 µM throughout.

For the compound `N.N.N.N.N.N.N.N.N.N.N.N.N.N.[Cl-].[Cl-].[Cl-].[Cl-].[Cl-].[Cl-].[O-2].[O-2].[Ru+3].[Ru+3].[Ru+4]` [RuRed, Ruthenium Red], in assay [1], the “Inhibition of 4-induced cell death in Jurkat cells” value is “rather weak” and the “Inhibition of celastrol-induced cell death in Jurkat cells” value is listed as “did not significantly stop cell death”.

Turning to `COC(=O)CC(NC(=O)C(C)NC(=O)C(NC(=O)OCc1ccccc1)C(C)C)C(=O)CF` (stereo not drawn) [Z-VAD-fmk, benzyloxycarbonyl-VAD(OMe)-fluoromethylketone] (Cbz-Val-Ala-Asp(OMe)-CH2F; configuration not given here), the “Inhibition of 4-induced cell death in Jurkat cells” value in [1] is “negligibly inhibited”. The “Inhibition … in HeLa-S3 cells” value in assay [2] is “negligibly inhibited”. Besides, the “Inhibition … in A549 cells” value in assay [3] is reported as “negligibly inhibited”.

Consider `NCCCC[C@H](NC(=O)[C@H](CCCCN)NC(=O)[C@@H](N)CCCCN)C(=O)NCC(=O)NCC(=O)NCCCCCCCCNC(=O)COc1cccc2c1C1c3c(OCC(=O)NCCCCCCCCNC(=O)CNC(=O)CNC(=O)[C@H](CCCCN)NC(=O)[C@H](CCCCN)NC(=O)[C@@H](N)CCCCN)cccc3C2c2cccc(OCC(=O)NCCCCCCCCNC(=O)CNC(=O)CNC(=O)[C@H](CCCCN)NC(=O)[C@H](CCCCN)NC(=O)[C@@H](N)CCCCN)c21` [compound 3], for which the concentration for a half-maximal effect (EC50) in assay [4] (1 h) was 8.6 ± 1.8 µM; in assay [5] (1 h), 5.3 ± 0.5 µM; in assay [6] (1 h), over 25 µM; in assay [7] (1 h) it was 2.2 ± 0.5 µM.

Turning to `NCCCC[C@H](NC(=O)[C@H](CC1CCCCC1)NC(=O)[C@H](CCCCN)NC(=O)[C@H](CC1CCCCC1)NC(=O)[C@@H](N)CCCCN)C(=O)NCC(=O)NCCCCCCCCNC(=O)COc1cccc2c1C1c3c(OCC(=O)NCCCCCCCCNC(=O)CNC(=O)[C@H](CCCCN)NC(=O)[C@H](CC4CCCCC4)NC(=O)[C@H](CCCCN)NC(=O)[C@H](CC4CCCCC4)NC(=O)[C@@H](N)CCCCN)cccc3C2c2cccc(OCC(=O)NCCCCCCCCNC(=O)CNC(=O)[C@H](CCCCN)NC(=O)[C@H](CC3CCCCC3)NC(=O)[C@H](CCCCN)NC(=O)[C@H](CC3CCCCC3)NC(=O)[C@@H](N)CCCCN)c21` [compound 6] (I: H-K[Cha]K[Cha]KG / II: H-K[Cha]K[Cha]KG / III: H-K[Cha]K[Cha]KG; linker I:C-II:C-III:C via X1), the values for the concentration for a half-maximal effect (EC50) in [5] (1 h), in assay [6] (1 h) and in assay [7] (1 h) were 3.3 ± 0.2 µM, over 25 µM and 1.2 ± 0.1 µM, respectively.

For the compound `N=C(N)NCCC[C@H](NC(=O)[C@H](CC1CCCCC1)NC(=O)[C@H](CCCNC(=N)N)NC(=O)[C@H](CC1CCCCC1)NC(=O)[C@@H](N)CCCNC(=N)N)C(=O)NCC(=O)NCCCCCCCCNC(=O)COc1cccc2c1C1c3c(OCC(=O)NCCCCCCCCNC(=O)CNC(=O)[C@H](CCCNC(=N)N)NC(=O)[C@H](CC4CCCCC4)NC(=O)[C@H](CCCNC(=N)N)NC(=O)[C@H](CC4CCCCC4)NC(=O)[C@@H](N)CCCNC(=N)N)cccc3C2c2cccc(OCC(=O)NCCCCCCCCNC(=O)CNC(=O)[C@H](CCCNC(=N)N)NC(=O)[C@H](CC3CCCCC3)NC(=O)[C@H](CCCNC(=N)N)NC(=O)[C@H](CC3CCCCC3)NC(=O)[C@@H](N)CCCNC(=N)N)c21` [compound 7] (I: H-R[Cha]R[Cha]RG / II: H-R[Cha]R[Cha]RG / III: H-R[Cha]R[Cha]RG; linker I:C-II:C-III:C via X1), the half-maximal effective concentration (EC50) in [4] (1 h) was 1.5 ± 0.1 µM; in [5] (1 h) it was 2.7 ± 0.5 µM; in assay [6] (1 h), over 12.5 µM; in assay [7] (1 h), 2.1 ± 0.1 µM.

For `COc1cc([C@@H]2c3cc4c(cc3[C@@H](O[C@@H]3O[C@@H]5CO[C@@H](C)O[C@H]5[C@H](O)[C@H]3O)[C@H]3COC(=O)[C@H]23)OCO4)cc(OC)c1O` [etoposide], the concentration for a half-maximal effect (EC50) in assay [4] (Homo sapiens, A549, read-out: EC50 against A549 cells) was over 100 µM; in [5] (Homo sapiens, HeLa S3, 24 h, read-out: EC50 against HeLa-S3 cells) it was over 100 µM; in assay [6] (Homo sapiens, IMR-90, 24 h, read-out: EC50 against IMR90 cells), over 25 µM; in assay [7] (Homo sapiens, Jurkat, 24 h, read-out: EC50 against Jurkat cells), 3.1 ± 0.1 µM. Moreover, in assay [8], the “Emission from Mito-FerroGreen (free Fe2+ in mitochondria) in Jurkat cells” value was “increases in both free-Fe^2+ and free-Zn^2+”. Further, the “Emission from zinquin (intracellular free Zn2+) in Jurkat cells” value in [9] was “increases in both free-Fe^2+ and free-Zn^2+”.

Consider `CN1C(=O)C(Cc2c[nH]c3ccccc23)NC1=S` (centres unmarked) [necrostatin-1], for which, in assay [1], the “Inhibition of 4-induced cell death in Jurkat cells” value is “negligibly inhibited”. Moreover, in assay [2], the “Inhibition … in HeLa-S3 cells” value was “negligibly inhibited”. Also, the “Inhibition … in A549 cells” value in assay [3] is reported as “negligibly inhibited”.
